{"source": "paper PMC7236083", "about": "(Hormones & cancer, 2020)", "key": {"[1]": {"molecular_target": "T1, glucocorticoid receptor (GR) (Homo sapiens, UniProt P04150)", "T1 sequence (P04150 1-777)": "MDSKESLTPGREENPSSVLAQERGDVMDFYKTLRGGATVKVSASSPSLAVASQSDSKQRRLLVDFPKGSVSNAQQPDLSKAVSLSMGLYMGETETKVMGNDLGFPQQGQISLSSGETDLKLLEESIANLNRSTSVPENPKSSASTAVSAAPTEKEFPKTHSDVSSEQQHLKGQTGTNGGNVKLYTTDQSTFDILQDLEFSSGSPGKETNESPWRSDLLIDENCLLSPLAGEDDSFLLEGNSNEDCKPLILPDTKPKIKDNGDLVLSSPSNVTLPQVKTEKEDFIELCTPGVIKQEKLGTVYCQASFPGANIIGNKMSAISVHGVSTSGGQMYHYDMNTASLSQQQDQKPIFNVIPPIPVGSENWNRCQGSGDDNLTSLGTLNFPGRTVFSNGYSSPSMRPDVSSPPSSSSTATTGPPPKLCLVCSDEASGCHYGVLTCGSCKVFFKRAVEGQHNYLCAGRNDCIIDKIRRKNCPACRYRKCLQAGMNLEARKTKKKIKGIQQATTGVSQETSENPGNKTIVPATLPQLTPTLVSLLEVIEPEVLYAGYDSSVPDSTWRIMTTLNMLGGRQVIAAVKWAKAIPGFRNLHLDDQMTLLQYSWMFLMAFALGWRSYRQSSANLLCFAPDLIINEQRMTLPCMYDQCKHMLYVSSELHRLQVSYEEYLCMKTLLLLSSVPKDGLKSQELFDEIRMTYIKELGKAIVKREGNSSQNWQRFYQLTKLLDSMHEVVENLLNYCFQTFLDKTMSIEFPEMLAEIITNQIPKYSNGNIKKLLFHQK", "assay": "fluorescence polarization competitive binding assay"}, "[2]": {"molecular_target": "T2, progesterone receptor (PR) (Homo sapiens, UniProt P06401)", "T2 sequence (P06401 675-933)": "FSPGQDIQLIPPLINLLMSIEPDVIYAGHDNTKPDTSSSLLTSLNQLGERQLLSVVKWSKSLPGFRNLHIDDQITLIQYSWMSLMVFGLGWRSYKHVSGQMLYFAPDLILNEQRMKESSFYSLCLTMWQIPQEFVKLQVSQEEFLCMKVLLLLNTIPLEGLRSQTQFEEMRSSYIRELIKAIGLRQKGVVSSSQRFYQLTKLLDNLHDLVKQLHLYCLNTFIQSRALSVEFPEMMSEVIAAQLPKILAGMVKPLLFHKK", "assay": "fluorescence polarization competitive binding assay"}}, "data": [{"compound": "O=c1cc(-c2ccccc2)oc2cc(O)c(O)c(O)c12", "note": "[baicalein]", "values": [{"measurement": "IC50", "setting": "[1]", "result": 19.3, "unit": "µM"}, {"measurement": "IC50", "setting": "[2]", "result": 15.3, "unit": "µM"}]}]}
